Data: article PMC4457528, “Identification of Novel Small Molecule Inhibitors of Oncogenic RET Kinase” (PLoS ONE, 2015)
Where two headings read alike, the source gives them in different places.

Columns and labels:
Assay in all cases: KinomeScan kinase panel, single concentration 10 µM
Assay type in all cases: binding
KinomeScan kinase panel [1] = molecular target: T1, KinomeScan kinase panel (Homo sapiens, UniProt O75676); details: 10 µM, read-out: score (%)
T1 construct: purchased DiscoveRx (KinomeScan)
T1 sequence (O75676 whole entry): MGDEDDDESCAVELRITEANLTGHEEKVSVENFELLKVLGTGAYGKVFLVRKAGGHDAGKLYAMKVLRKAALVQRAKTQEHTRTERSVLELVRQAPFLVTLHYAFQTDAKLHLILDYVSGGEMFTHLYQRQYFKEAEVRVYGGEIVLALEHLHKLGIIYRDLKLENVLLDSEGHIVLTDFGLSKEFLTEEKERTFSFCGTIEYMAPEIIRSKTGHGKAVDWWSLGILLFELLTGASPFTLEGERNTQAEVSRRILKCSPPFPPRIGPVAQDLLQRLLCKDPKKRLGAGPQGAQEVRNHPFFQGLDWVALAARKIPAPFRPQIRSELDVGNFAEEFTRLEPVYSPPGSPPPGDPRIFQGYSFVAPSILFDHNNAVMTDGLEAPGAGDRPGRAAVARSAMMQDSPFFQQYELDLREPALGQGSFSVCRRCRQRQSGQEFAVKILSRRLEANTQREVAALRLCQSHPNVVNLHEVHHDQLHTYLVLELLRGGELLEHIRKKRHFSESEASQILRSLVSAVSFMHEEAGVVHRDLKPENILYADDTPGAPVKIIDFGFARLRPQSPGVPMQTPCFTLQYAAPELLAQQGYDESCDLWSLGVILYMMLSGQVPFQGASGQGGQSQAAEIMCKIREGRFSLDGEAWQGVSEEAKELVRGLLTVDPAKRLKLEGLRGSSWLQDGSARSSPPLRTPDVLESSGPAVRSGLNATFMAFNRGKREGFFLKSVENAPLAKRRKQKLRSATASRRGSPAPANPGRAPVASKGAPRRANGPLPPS

KinomeScan kinase panel [2] = molecular target: T2, KinomeScan kinase panel (Homo sapiens, UniProt O94768); details: DRAK2, 10 µM; read-out: score (%)
T2 construct: purchased DiscoveRx (KinomeScan)
T2 sequence (O94768 1-372): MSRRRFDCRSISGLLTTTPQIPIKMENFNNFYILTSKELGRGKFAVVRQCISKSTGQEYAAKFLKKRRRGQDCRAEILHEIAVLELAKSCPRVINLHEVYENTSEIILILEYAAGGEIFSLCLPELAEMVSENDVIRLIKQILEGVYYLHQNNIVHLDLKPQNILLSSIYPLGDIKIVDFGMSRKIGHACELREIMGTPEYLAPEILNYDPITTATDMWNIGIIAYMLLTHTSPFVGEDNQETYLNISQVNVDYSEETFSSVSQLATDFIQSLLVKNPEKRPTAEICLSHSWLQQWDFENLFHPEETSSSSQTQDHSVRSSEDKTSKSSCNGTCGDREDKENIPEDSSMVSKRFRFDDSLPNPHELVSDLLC

KinomeScan kinase panel [3] = molecular target: T3, KinomeScan kinase panel (Homo sapiens, UniProt P22607, G697C); details: FGFR3(G697C), 10 µM; read-out: score (%)
T3 construct: purchased DiscoveRx (KinomeScan)
T3 sequence (P22607 23-806 G697C): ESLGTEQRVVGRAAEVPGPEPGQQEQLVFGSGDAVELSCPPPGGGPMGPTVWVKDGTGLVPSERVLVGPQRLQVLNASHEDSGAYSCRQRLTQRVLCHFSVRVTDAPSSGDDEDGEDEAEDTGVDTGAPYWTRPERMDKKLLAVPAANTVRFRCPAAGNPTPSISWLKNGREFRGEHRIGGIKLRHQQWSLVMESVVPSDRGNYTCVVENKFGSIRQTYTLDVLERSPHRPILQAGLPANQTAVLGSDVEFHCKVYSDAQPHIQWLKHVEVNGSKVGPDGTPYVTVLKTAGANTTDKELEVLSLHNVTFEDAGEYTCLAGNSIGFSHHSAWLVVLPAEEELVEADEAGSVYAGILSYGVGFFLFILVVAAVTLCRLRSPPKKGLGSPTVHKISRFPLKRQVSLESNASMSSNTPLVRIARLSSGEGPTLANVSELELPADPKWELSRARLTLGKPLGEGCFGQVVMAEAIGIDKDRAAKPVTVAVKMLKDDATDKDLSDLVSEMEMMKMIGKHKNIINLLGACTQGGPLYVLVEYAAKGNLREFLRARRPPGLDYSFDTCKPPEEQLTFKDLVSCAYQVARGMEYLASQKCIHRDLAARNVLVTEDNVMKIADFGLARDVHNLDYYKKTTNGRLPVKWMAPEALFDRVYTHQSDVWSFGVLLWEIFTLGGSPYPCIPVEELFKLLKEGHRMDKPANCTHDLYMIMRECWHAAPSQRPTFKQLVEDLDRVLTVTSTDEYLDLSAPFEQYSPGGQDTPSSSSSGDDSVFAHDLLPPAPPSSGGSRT

KinomeScan kinase panel [4] = molecular target: T4, KinomeScan kinase panel (Homo sapiens, UniProt Q13555); details: CAMK2G, 10 µM; read-out: score (%)
T4 construct: purchased DiscoveRx (KinomeScan)
T4 sequence (Q13555 whole entry): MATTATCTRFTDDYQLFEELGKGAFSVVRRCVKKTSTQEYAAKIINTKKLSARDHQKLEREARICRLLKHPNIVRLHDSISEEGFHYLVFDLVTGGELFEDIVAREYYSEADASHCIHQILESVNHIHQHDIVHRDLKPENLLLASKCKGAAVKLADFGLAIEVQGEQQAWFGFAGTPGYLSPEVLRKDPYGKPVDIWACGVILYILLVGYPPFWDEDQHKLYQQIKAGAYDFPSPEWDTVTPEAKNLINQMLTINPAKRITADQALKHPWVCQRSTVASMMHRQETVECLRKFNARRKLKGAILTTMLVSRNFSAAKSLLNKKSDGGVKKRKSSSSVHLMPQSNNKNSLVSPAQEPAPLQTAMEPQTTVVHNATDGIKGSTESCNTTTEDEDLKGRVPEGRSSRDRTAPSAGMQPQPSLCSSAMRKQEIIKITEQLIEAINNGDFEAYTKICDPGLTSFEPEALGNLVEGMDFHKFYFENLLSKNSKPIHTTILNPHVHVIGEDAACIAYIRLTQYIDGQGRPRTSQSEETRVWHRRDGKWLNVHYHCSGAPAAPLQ

KinomeScan kinase panel [5] = molecular target: T5, KinomeScan kinase panel (Homo sapiens, UniProt Q15569); details: read-out: score (%)
T5 construct: purchased DiscoveRx (KinomeScan)
T5 sequence (Q15569 whole entry): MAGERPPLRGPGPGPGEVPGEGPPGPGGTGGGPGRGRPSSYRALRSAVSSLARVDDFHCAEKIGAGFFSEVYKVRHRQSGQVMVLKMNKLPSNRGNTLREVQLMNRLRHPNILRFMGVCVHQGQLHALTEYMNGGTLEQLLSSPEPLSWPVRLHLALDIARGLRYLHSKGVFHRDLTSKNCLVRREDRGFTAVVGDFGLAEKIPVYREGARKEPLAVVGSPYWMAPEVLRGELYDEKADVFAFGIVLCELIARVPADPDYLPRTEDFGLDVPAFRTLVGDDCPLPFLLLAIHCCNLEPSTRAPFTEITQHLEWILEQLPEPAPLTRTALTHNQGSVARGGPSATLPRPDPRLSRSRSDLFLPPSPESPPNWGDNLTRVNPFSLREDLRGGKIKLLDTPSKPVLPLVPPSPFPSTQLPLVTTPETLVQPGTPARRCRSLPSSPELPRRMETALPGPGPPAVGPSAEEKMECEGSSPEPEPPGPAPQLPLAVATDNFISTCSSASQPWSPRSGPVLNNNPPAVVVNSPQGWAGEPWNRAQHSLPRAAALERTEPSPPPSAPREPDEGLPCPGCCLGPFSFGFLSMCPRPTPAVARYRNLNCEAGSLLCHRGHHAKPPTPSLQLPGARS

KinomeScan kinase panel [6] = molecular target: T6, KinomeScan kinase panel (Homo sapiens, UniProt Q8N752); details: CSNK1A1L, 10 µM; read-out: score (%)
T6 construct: purchased DiscoveRx (KinomeScan)
T6 sequence (Q8N752 1-337): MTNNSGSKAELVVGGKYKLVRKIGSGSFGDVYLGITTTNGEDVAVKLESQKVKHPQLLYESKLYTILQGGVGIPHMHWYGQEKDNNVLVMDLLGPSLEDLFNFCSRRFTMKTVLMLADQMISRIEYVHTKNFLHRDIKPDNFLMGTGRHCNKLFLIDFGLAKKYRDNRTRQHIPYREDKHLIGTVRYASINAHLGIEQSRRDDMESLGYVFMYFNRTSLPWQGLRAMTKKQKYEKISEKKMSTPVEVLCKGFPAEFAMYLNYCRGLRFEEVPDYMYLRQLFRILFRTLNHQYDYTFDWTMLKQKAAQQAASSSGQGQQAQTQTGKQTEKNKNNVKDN

KinomeScan kinase panel [7] = molecular target: T7, KinomeScan kinase panel (Homo sapiens, UniProt Q9NRM7); details: LATS2, 10 µM
T7 construct: purchased DiscoveRx (KinomeScan)
T7 sequence (Q9NRM7 1-1088): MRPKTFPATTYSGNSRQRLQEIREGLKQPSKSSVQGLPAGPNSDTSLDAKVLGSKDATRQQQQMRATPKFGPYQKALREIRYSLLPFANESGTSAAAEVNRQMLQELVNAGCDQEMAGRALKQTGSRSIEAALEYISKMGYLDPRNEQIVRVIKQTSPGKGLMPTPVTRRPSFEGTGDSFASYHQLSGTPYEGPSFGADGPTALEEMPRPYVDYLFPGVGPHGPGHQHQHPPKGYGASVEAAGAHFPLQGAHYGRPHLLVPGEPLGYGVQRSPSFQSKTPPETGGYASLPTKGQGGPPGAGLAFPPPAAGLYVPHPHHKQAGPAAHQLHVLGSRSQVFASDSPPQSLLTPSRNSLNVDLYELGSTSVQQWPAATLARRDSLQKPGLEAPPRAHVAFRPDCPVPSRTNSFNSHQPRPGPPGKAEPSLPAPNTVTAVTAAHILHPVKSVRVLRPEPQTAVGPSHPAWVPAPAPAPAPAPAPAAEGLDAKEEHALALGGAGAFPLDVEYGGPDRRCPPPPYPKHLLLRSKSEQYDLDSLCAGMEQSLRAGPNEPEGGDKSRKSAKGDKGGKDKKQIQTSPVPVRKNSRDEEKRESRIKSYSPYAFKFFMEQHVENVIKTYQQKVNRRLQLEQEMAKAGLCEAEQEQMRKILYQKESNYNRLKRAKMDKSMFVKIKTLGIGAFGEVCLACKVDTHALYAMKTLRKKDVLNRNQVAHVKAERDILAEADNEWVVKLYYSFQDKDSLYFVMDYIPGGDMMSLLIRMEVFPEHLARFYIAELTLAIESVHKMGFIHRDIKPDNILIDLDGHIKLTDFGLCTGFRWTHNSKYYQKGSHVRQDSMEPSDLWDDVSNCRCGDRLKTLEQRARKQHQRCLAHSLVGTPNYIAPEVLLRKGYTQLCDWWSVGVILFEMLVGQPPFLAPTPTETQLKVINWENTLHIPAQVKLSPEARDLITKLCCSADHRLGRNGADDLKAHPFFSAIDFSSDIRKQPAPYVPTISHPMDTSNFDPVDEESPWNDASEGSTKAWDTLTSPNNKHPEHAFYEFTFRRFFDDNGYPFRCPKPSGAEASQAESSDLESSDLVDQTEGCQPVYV

[8] = kinase RPS6KA4(Kin.Dom.1-N-terminal)
[9] = kinase RPS6KA4(Kin.Dom.2-C-terminal)

remaining binding at 10 µM (KinomeScan kinase panel [1]; RPS6KA4(Kin.Dom.1)) | remaining binding at 10 µM (KinomeScan kinase panel [1]; RPS6KA4(Kin.Dom.2)) | remaining binding at 10 µM (KinomeScan kinase panel [5]; TESK1, 10 µM) | SMILES | remaining binding at 10 µM (KinomeScan kinase panel [1]; [8]) | remaining binding at 10 µM (KinomeScan kinase panel [1]; [9]) | remaining binding at 10 µM (KinomeScan kinase panel [2]) | remaining binding at 10 µM (KinomeScan kinase panel [3]) | remaining binding at 10 µM (KinomeScan kinase panel [4]) | remaining binding at 10 µM (KinomeScan kinase panel [5]; kinase TESK1, 10 µM) | remaining binding at 10 µM (KinomeScan kinase panel [6]) | score (%) (KinomeScan kinase panel [7])
– | – | – | CCN1CCN(Cc2ccc(NC(=O)c3ccc(C)c(NC(=O)c4cncc(-c5cccs5)c4)c3)cc2C(F)(F)F)CC1 [ALW-II-41-27] | 6.3% | > 30% | 31% | > 30% | > 30% | > 30% | > 30% | nb (Hits values higher than 30% were considered negative (no binding: nb))
> 30% | > 30% | 4.2% | CCN1CCN(Cc2ccc(NC(=O)c3ccc(C)c(/C=C/c4cnc5[nH]ccc5c4Cl)c3)cc2C(F)(F)F)CC1 [HG-6-63-01, (E)-3-(2-(4-chloro-1H-pyrrolo[2,3-b]pyridin-5-yl)vinyl)-N-(4-((4-ethylpiperazin-1-yl)methyl)-3-(trifluoromethyl)phenyl)-4-methylbenzamide] | – | – | 1.6% | 2.4% | > 30% | – | > 30% | nb (Hits values higher than 30% were considered negative (no binding: nb))
– | – | – | CCN1CCN(Cc2ccc(NC(=O)c3ccc(C)c(C#Cc4cccnc4)c3)cc2C(F)(F)F)CC1 [XMD15-44] | 30% | 99% | > 30% | 0.05% | > 30% | 60% | > 30% | 7.6%
